Holding throughout (experiment): NCI-60 cell line screen, 48 h
Assay [1] concerns COLO 205 colon.
Assay [2] has as its system IGROV1 ovarian.
The subject of assay [3] is RPMI-8226 leukemia.
The subject of assay [4] is UO-31 renal.
In assay [5] the test system is 786-0 renal.
Assay [6] relates to SK-MEL-2 melanoma.
For assay [7], the system named is SR leukemia.
Assay [8] deals with CAKI-1 renal.
Assay [9] has as its system MDA-MB-435.

“And” between values parts separate entries of the source, which are not always exact repeats. Identical values can stand only once.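 Step 1: Grow cells in 96-well plates. Step 2: Expose to compound for 48 hours at 5 concentrations. Step 3: Interpolate endpoints linearly; if unreached, use highest concentration. Here, GI50 denotes the concentration required for 50% inhibition of growth. TGI denotes the concentration required for complete inhibition of growth.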 Where only a bound is given, the exact number is not on record here.

As to `COc1cc([C@H]2c3cc4c(cc3[C@H](NCc3ccc(F)cc3)C3COC(=O)[C@H]32)OCO4)cc(OC)c1O` (some centres not stated), the TGI in assay [1] amounted to 31.5 µM; in [2], 34 µM; in [3], 18.2 µM; in assay [4], 14.9 µM; in assay [5], 5.48 µM; in assay [6] it was 33.1 µM.
Take `Cc1cc2nc3c(C(OC4OC(CO)C(O)C(O)C4O)C(O)CO)nn(-c4ccc(F)cc4)c3nc2cc1C` (configuration not stated): the TGI in [3], in assay [7], in assay [4] and in [5] was > 100 µM throughout.
Consider `O=C1Cc2c([nH]c3ccccc23)-c2cc(Br)ccc2N1`, for which the TGI in assay [1], in [2], in assay [8], in assay [3], in assay [4] and in assay [5] was > 100 µM each time. Also, the TGI in [6] was > 100 µM.
Regarding `CCOc1ccccc1NC(=O)C1=C(C)NC(C)=C(C(=O)Nc2ccccc2OCC)C1c1ccc2c(c1)OCO2`, the TGI in assay [1], in assay [2], in assay [8], in assay [3], in assay [4] and in assay [5] was > 100 µM each time. The compound also displayed a TGI in [6] of 55.3 µM.
With `COc1ccc(/C(C#N)=C2/O/C(=N/N)C(c3ccc(OC)c(OC)c3)C2=O)cc1OC` (configuration not stated), the TGI in assay [2], in [8], in assay [3], in assay [7], in assay [4] and in assay [5] was > 100 µM in each case. The TGI in assay [6] was > 100 µM.
On to `NC(=O)C1C(=O)Oc2cccnc21` (configuration not stated), for which the TGI in [1], in assay [2], in assay [3], in [4] and in [5] was > 100 µM each time.
On to `CN(C)CN(C)c1nc(N(C)C)nc(N(C)C)n1`, for which the TGI in [1], in assay [2], in [8], in assay [3], in assay [7] and in assay [4] was > 100 µM each time. Also, the TGI in [5] and in [6] was > 100 µM each time.
Take `O=C(O)c1cc2ccc(Cl)cc2c(O)c1C1=CCCCC1`: the TGI is > 100 µM in assay [1]; > 100 µM in assay [2]; 96.4 µM in assay [8]; > 100 µM in [3]; > 100 µM in assay [7]; > 100 µM in assay [4]. The TGI in assay [5] was > 100 µM; in assay [6] it was 63.8 µM.
On to `COc1ccc(C2C(C(=O)O)=C(COC(C)=O)Oc3cc4c(cc32)OCO4)c(OC)c1` (configuration not stated), for which the TGI in [1], in [2], in [8], in [3], in assay [4] and in [5] was > 100 µM each time. In assay [6], the TGI is > 100 µM.
Take `c1ccc2c(c1)n1nnnc1c1nnnn21`: the TGI in [1], in assay [2], in assay [8], in assay [3], in assay [4] and in assay [5] was > 100 µM in each case. Moreover, the TGI in [6] was > 100 µM.
Take `CCOC(=O)C(=O)Nc1nc2ccc(OC)cc2s1`: the TGI in assay [1], in assay [2], in assay [8], in [3], in [4] and in [5] was > 100 µM each time. In addition, the TGI in [6] is > 100 µM.
Take `Cc1c(C(=O)/C=C/c2ccc3c(c2)OCO3)[n+](=O)c2ccccc2n1[O-]`: the TGI in assay [1] was 78.7 µM; in [2] it was > 100 µM; in [8] it was 85.7 µM; in assay [3], 69.3 µM; in assay [7], > 100 µM; in assay [4] it was 97.4 µM. Moreover, the TGI in assay [5] was > 100 µM.
For the compound `Nc1cccc(C(=O)/C=C/c2ccccc2O)c1`, the TGI was > 100 µM in assay [1]; > 100 µM in assay [2]; > 100 µM in assay [8]; 39.3 µM in [3]; > 100 µM in assay [7]; > 100 µM in [4]. Moreover, the TGI in assay [5] and in assay [6] was > 100 µM each time.
For `O=C(Cn1ccnc1[N+](=O)[O-])NCc1ccc(F)cc1`, the TGI in [1], in assay [2], in assay [8], in [3], in assay [4] and in assay [5] was > 100 µM each time. For the same compound, the TGI in assay [6] is > 100 µM.
For the compound `CNC(=O)N(CCCCC(NC(C)=O)C(=O)NCc1ccccc1)Cc1ccccc1` (configuration not stated), the TGI in assay [1], in assay [2], in [8], in [3], in [4] and in assay [5] was > 100 µM each time. In addition, the TGI in [6] was > 100 µM.
Take `Cc1cccc(NC(=O)CSc2nnc(-c3ccc(N=Cc4ccc(Cl)cc4)cc3)o2)c1`: the TGI in assay [1], in [3], in assay [7], in [4], in assay [5] and in assay [6] was > 100 µM each time.
Turning to `CCOC(=O)c1cnc2c(ccc3ncccc32)c1OCC`, the TGI in assay [1], in assay [2], in assay [7], in assay [4], in assay [5] and in [6] was > 100 µM throughout.
For `COc1ccc(S(=O)(=O)NNS(C)(=O)=O)cc1OC`, the TGI in [1], in assay [2], in assay [8], in assay [3], in [7] and in assay [4] was > 100 µM throughout. In addition, the TGI in [5] and in [6] was > 100 µM in each case.
For the compound `CCOc1ccc(N=Nc2c(-c3ccccc3)nn(C(=O)CC(=O)Nc3ccccc3Cl)c2-c2ccccc2)cc1`, the TGI in assay [1], in assay [2], in assay [8], in assay [3], in [7] and in assay [4] was > 100 µM throughout. In addition, the TGI in assay [5] and in [6] was > 100 µM throughout.
With `Nc1nc2c([nH]1)c1[nH]c3ccccc3c1c1[nH]c3ccccc3c21`, the GI50 is 9.73 µM in assay [9]; 10.2 µM in assay [2]; 16 µM in assay [8]; 9.83 µM in [3]; 11 µM in assay [4]; 9.44 µM in [5]. Besides, the GI50 in assay [6] is 16.2 µM. Also, the TGI in assay [9] was found to be 22 µM; in assay [2], 22.6 µM; in assay [8], 29.5 µM; in assay [3] it was 28.3 µM; in [4], 22.9 µM; in assay [5], 22.6 µM. In addition, the TGI in assay [6] came out at 32.4 µM.
Take `CN(C)CCC(/C=C/c1ccccc1)=N\Nc1c(F)c(F)c(F)c(F)c1F`: the TGI in assay [1], in [2], in [3], in assay [7], in [4] and in assay [5] was > 100 µM each time. For the same compound, in assay [6], the TGI is > 100 µM.
`O=C(Nc1c(Cl)cc([N+](=O)[O-])cc1Cl)C(=O)C(C(=O)c1ccncc1)C1OC(=O)c2ccccc21` (configuration not stated): the TGI in assay [1], in assay [2], in [8], in assay [3], in assay [7] and in [4] was > 100 µM throughout. Besides, the TGI in assay [5] is > 100 µM.
For the compound `CC1(O)CC2C(CC1SCc1ccccc1)C2(C)C` (configuration not stated), the TGI in assay [1] was 35.6 µM and 30.6 µM; in assay [2], > 100 µM and 28.9 µM; in assay [8] it was 32 µM and 25.2 µM; in [3], 44.9 µM and 51.1 µM; in assay [4] it was > 100 µM and 27.9 µM; in assay [5], 42.7 µM and 29.3 µM. Also, in [6], the TGI was 33.3 µM and 26.1 µM. Also, the GI50 is 38.8 µM and 15.4 µM in [2]; 31.2 µM and 14.5 µM in assay [4].
On to `COC(=O)C1C(=O)NC2(C)CC1c1ccccc1O2` (configuration not stated), for which the TGI in assay [2], in assay [8], in assay [3], in assay [7], in assay [4] and in assay [5] was > 100 µM in each case. For the same compound, in assay [6], the TGI was > 100 µM.
As for `O=C(CC/C(CC(=O)c1ccc(Cl)cc1)=N\O)Nc1cccc(Cl)c1`, the TGI in assay [1], in [2], in [8], in [3], in assay [4] and in assay [5] was > 100 µM each time. In addition, in assay [6], the TGI was > 100 µM.
`Cc1ccc(-n2cc(/C(N)=N/O)c3ccccc3c2=O)cc1`: the TGI in assay [1], in assay [2], in assay [3], in assay [7], in [4] and in [5] was > 100 µM in each case.

For the origin of these results see PubChem BioAssay (NCI).
